Assay results taken from US20180334436A1 (VIIV HEALTHCARE UK LIMITED, priority 2015, published 2018).

System: HIV
Test: MT4 assay (anti-HIV activity)
Format: cell-based
Conditions: Human immunodeficiency virus 1, 96 h, antiviral HIV activity in HTLV-1 transformed cell line MT-4; luciferase read 96 hours later; 10 point dose response
Experimental: Antiviral HIV activity and cytotoxicity values for compounds of the invention from Table 1 were measured in parallel in the HTLV-1 transformed cell line MT-4 based on the method previously described (Hazen et al., 2007, In vitro antiviral activity of the novel, tyrosyl-based human immunodeficiency virus (HIV) type 1 protease inhibitor brecanavir (GW640385) in combination with other antiretrovirals and against a panel of protease inhibitor-resistant HIV (Hazen et al., “In vitro antiviral activity of the novel, tyrosyl-based human immunodeficiency virus (HIV) type 1 protease inhibitor brecanavir (GW640385) in combination with other antiretrovirals and against a panel of protease inhibitor-resistant HIV”, Antimicrob. Agents Chemother. 2007, 51: 3147-3154; and Pauwels et al., “Sensitive and rapid assay on MT-4 cells for the detection of antiviral compounds against the AIDS virus”, J. of Virological Methods 1987, 16: 171-185).
Luciferase activity was measured 96 hours later by adding a cell titer glo (Promega, Madison, Wis.). Percent inhibition of cell protection data was plotted relative to no compound control. Under the same condition, cytotoxicity of the compounds was determined using cell titer Glo™ (Promega, Madison, Wis.). IC50s were determined from a 10 point dose response curve using 3-4-fold serial dilution for each compound, which spans a concentration range >1000 fold.
These values are plotted against the molar compound concentrations using the standard four parameter logistic equation:
y=((Vmax*x̂n)/(K̂n+x̂n))+Y2
Y2=minimum y n=slope factor
Vmax=maximum y x=compound concentration [M]

| Structure (SMILES) | IC50 [nM] |
| --- | --- |
| Cc1c(-c2c(C)c3c(c(C)c2[C@H](OC(C)(C)C)C(=O)O)CCN(S(=O)(=O)C2CCCCC2)C3)ccc2c1CCCO2 (atropisomer, axis not shown; (M)) [Example 83, (2S)(M)-2-(tert-butoxy)-2-(-2-(cyclohexylsulfonyl)-5,8-dimethyl-7-(5-methylchroman-6-yl)-1,2,3,4-tetrahydroisoquinolin-6-yl)acetic Acid] | 46 |
| Cc1c(-c2c(C)c3c(c(C)c2[C@H](OC(C)(C)C)C(=O)O)CC(=O)N(C2CCCCC2)C3)ccc2c1NCCO2 (atropisomer, axis not shown) [Example 119, (S)-2-(tert-butoxy)-2-((R)-2-cyclohexyl-5,8-dimethyl-7-(5-methyl-3,4-dihydro-2H-benzo[b][1,4]oxazin-6-yl)-3-oxo-1,2,3,4-tetrahydroisoquinolin-6-yl)acetic Acid] | 8 |
| Cc1ccc(-c2c(C)c3c(c(C)c2C(OC(C)(C)C)C(=O)O)CN(C(=O)NC2CCCCC2)CC3)cc1 (centres unmarked) [Example 10, 2-(tert-Butoxy)-2-(2-(cyclohexylcarbamoyl)-5,8-dimethyl-6-(p-tolyl)-1,2,3,4-tetrahydroisoquinolin-7-yl)acetic Acid] | 1480 |
| Cc1c(-c2c(C)c3c(c(C)c2[C@H](OC(C)(C)C)C(=O)O)CCN(C(=O)c2ccccc2)C3)cc(F)c2c1CCCO2 [Example 91, (S)-2-((R)-2-Benzoyl-7-(8-fluoro-5-methylchroman-6-yl)-5,8-dimethyl-1,2,3,4-tetrahydroisoquinolin-6-yl)-2-(tert-butoxy)acetic Acid] | 48 |
| Cc1ccc(-c2c(C)c3c(c(C)c2[C@H](OC(C)(C)C)C(=O)O)CCN(CC2CCCCC2)C3)cc1 [Example 31, (S)-2-(tert-Butoxy)-2-(2-(cyclohexylmethyl)-5,8-dimethyl-7-(p-tolyl)-1,2,3,4-tetrahydroisoquinolin-6-yl)acetic Acid] | 50 |
| Cc1ccc(-c2c(C)c3c(c(C)c2[C@H](OC(C)(C)C)C(=O)O)CN(C(=O)OC(C)(C)C)CC3)cc1 [Example 17, (S)-2-(tert-Butoxy)-2-(2-(tert-butoxycarbonyl)-5,8-dimethyl-6-(p-tolyl)-1,2,3,4-tetrahydroisoquinolin-7-yl)acetic Acid] | 444 |
| Cc1c(-c2c(C)c3c(c(C)c2[C@H](OC(C)(C)C)C(=O)O)CC(=O)N(C2CCN(C)CC2)C3)cc(F)c2c1CCCO2 (atropisomer, axis not shown) [Example 112, (S)-2-(tert-butoxy)-2-((R)-7-(8-fluoro-5-methylchroman-6-yl)-5,8-dimethyl-2-(1-methylpiperidin-4-yl)-3-oxo-1,2,3,4-tetrahydroisoquinolin-6-yl)acetic Acid] | 1040 |
| Cc1ccc(-c2c(C)c3c(c(C)c2[C@H](OC(C)(C)C)C(=O)O)CCN(S(=O)(=O)C2CCCCCC2)C3)cc1 [Example 68, (S)-2-(tert-butoxy)-2-(2-(cycloheptylsulfonyl)-5,8-dimethyl-7-(p-tolyl)-1,2,3,4-tetrahydroisoquinolin-6-yl)acetic Acid] | 50 |
| Cc1c(-c2c(C)c3c(c(C)c2[C@H](OC(C)(C)C)C(=O)O)CC(=O)N(C2CCN(C(=O)OC(C)(C)C)CC2)C3)cc(F)c2c1CCCO2 (atropisomer, axis not shown) [Example 115] | 116 |
| Cc1c2c(c(C)c([C@H](OC(C)(C)C)C(=O)O)c1-c1ccc(Cl)cc1)CCN(S(=O)(=O)C1CCCCC1)C2 [Example 86, (S)-2-(tert-butoxy)-2-(7-(4-chlorophenyl)-2-(cyclohexylsulfonyl)-5,8-dimethyl-1,2,3,4-tetrahydroisoquinolin-6-yl)acetic Acid] | 38 |
| Cc1ccc(-c2c(C)c3c(c(C)c2[C@H](OC(C)(C)C)C(=O)O)CCN(S(=O)(=O)c2cccc(F)c2)C3)cc1 [Example 57, (S)-2-(tert-butoxy)-2-(2-((3-fluorophenyl)sulfonyl)-5,8-dimethyl-7-(p-tolyl)-1,2,3,4-tetrahydroisoquinolin-6-yl)acetic Acid] | 292 |
| Cc1ccc(-c2c(C)c3c(c(C)c2C(OC(C)(C)C)C(=O)O)CN(C2CCCCC2)CC3)cc1 (centres unmarked) [Example 2, 2-(tert-Butoxy)-2-(2-cyclohexyl-5,8-dimethyl-6-(p-tolyl)-1,2,3,4-tetrahydroisoquinolin-7-yl)acetic Acid] | 1720 |
| Cc1ccc(-c2c(C)c3c(c(C)c2[C@H](OC(C)(C)C)C(=O)O)CCN(C(=O)C2CCCCC2)C3)cc1 [Example 47, (S)-2-(tert-butoxy)-2-(2-(cyclohexanecarbonyl)-5,8-dimethyl-7-(p-tolyl)-1,2,3,4-tetrahydroisoquinolin-6-yl)acetic Acid] | 51 |
| Cc1c(-c2c(C)c3c(c(C)c2[C@H](OC(C)(C)C)C(=O)O)CCN(C2CCCCC2)C3)cc(Cl)c2c1CCCO2 (atropisomer, axis not shown; (M)) [Example 89, (S)(M)-2-(tert-butoxy)-2-(7-(8-chloro-5-methylchroman-6-yl)-2-cyclohexyl-5,8-dimethyl-1,2,3,4-tetrahydroisoquinolin-6-yl)acetic Acid] | 12 |
| Cc1c(-c2c(C)c3c(c(C)c2[C@H](OC(C)(C)C)C(=O)O)CC(=O)N(C2CCC(C)(C)CC2)C3)cc(F)c2c1CCCO2 (atropisomer, axis not shown) [Example 105, (S)-2-(tert-butoxy)-2-((R)-2-(4,4-dimethylcyclohexyl)-7-(8-fluoro-5-methylchroman-6-yl)-5,8-dimethyl-3-oxo-1,2,3,4-tetrahydroisoquinolin-6-yl)acetic Acid] | 2 |
| Cc1ccc(-c2c(C)c3c(c(C)c2[C@H](OC(C)(C)C)C(=O)O)CCN(c2ccccc2)C3)cc1 [Example 36, (S)-2-(tert-Butoxy)-2-(5,8-dimethyl-2-phenyl-7-(p-tolyl)-1,2,3,4-tetrahydroisoquinolin-6-yl)acetic Acid] | 148 |
| Cc1ccc(-c2c(C)c3c(c(C)c2C(OC(C)(C)C)C(=O)O)CN(Cc2cccc(F)c2)CC3)cc1 (centres unmarked) [Example 1, 2-(tert-Butoxy)-2-(2-(3-fluorobenzyl)-5,8-dimethyl-6-(p-tolyl)-1,2,3,4-tetrahydroisoquinolin-7-yl)acetic Acid] | 3250 |
| Cc1ccc(-c2c(C)c3c(c(C)c2[C@H](OC(C)(C)C)C(=O)O)CCN(C(=O)OC(C)(C)C)C3)cc1 [Example 27, (S)-2-(tert-Butoxy)-2-(2-(tert-butoxycarbonyl)-5,8-dimethyl-7-(p-tolyl)-1,2,3,4-tetrahydroisoquinolin-6-yl)acetic Acid] | 114 |
| COc1c(F)cccc1C(=O)N1CCc2c(C)c([C@H](OC(C)(C)C)C(=O)O)c(-c3cc(F)c4c(c3C)CCCO4)c(C)c2C1 [Example 82, (S)-2-(tert-Butoxy)-2-((R)-2-(3-fluoro-2-methoxybenzoyl)-7-(8-fluoro-5-methylchroman-6-yl)-5,8-dimethyl-1,2,3,4-tetrahydroisoquinolin-6-yl)acetic Acid] | 20 |
| Cc1ccc(-c2c(C)c3c(c(C)c2[C@H](OC(C)(C)C)C(=O)O)CCN(C2CCc4ccccc4C2)C3)cc1 (stereo partly drawn) [Example 77, (2S)-2-(tert-butoxy)-2-(5,8-dimethyl-2-(1,2,3,4-tetrahydronaphthalen-2-yl)-7-(p-tolyl)-1,2,3,4-tetrahydroisoquinolin-6-yl)acetic Acid] | 40 |
| Cc1ccc(-c2c(C)c3c(c(C)c2C(OC(C)(C)C)C(=O)O)CCN(C(=O)c2cccc(F)c2)C3)cc1 (centres unmarked) [Example 22, 2-(tert-Butoxy)-2-(2-(3-fluorobenzoyl)-5,8-dimethyl-7-(p-tolyl)-1,2,3,4-tetrahydroisoquinolin-6-yl)acetic Acid] | 329 |
| Cc1c(-c2c(C)c3c(c(C)c2[C@H](OC(C)(C)C)C(=O)O)CC(=O)N(C2CCCCC2)C3)ccc2c1CCCO2 (atropisomer, axis not shown) [Example 120, (S)-2-(tert-butoxy)-2-((R)-2-cyclohexyl-5,8-dimethyl-7-(5-methylchroman-6-yl)-3-oxo-1,2,3,4-tetrahydroisoquinolin-6-yl)acetic Acid] | 2 |
| Cc1c(-c2c(C)c3c(c(C)c2[C@H](OC(C)(C)C)C(=O)O)CC(=O)N(Cc2ccccc2)C3)cc(F)c2c1CCCO2 (atropisomer, axis not shown; (M)) [Example 102, (S)(M)-2-(2-benzyl-7-(8-fluoro-5-methylchroman-6-yl)-5,8-dimethyl-3-oxo-1,2,3,4-tetrahydroisoquinolin-6-yl)-2-(tert-butoxy)acetic Acid] | 3 |
| Cc1ccc(-c2c(C)c3c(c(C)c2[C@H](OC(C)(C)C)C(=O)O)CCN(CC(C)(C)C)C3)cc1 [Example 33, (S)-2-(tert-Butoxy)-2-(5,8-dimethyl-2-neopentyl-7-(p-tolyl)-1,2,3,4-tetrahydroisoquinolin-6-yl)acetic Acid] | 37 |
| Cc1ccc(-c2c(C)c3c(c(C)c2[C@H](OC(C)(C)C)C(=O)O)CN(C(=O)N2CCCC2)CC3)cc1 [Example 14, (S)-2-(tert-Butoxy)-2-(5,8-dimethyl-2-(pyrrolidine-1-carbonyl)-6-(p-tolyl)-1,2,3,4-tetrahydroisoquinolin-7-yl)acetic Acid] | 1110 |
| Cc1ccc(-c2c(C)c3c(c(C)c2C(OC(C)(C)C)C(=O)O)CCN(C2CCCCC2)C3)cc1 (centres unmarked) [Example 21, 2-(tert-Butoxy)-2-(2-cyclohexyl-5,8-dimethyl-7-(p-tolyl)-1,2,3,4-tetrahydroisoquinolin-6-yl)acetic Acid] | 27 |
